What was measured:
[1] = Solubility of the sodium salt in water; format: physicochemical
Experimental: 2,4,6-Triiodo-5-methoxyacetamido-N-methylisophthalamic acid (6.005 g.) was dissolved in water with NaOH solution at pH 7.4 to form a supersaturated solution (7.0 ml.). When the solution was allowed to stand at room temperature overnight, crystallization occurred. The crystals were collected and dried.
The sodium salt (2.71 g.) was then dissolved in water to form an 82% w/v solution (3.3 ml.). After the solution was allowed to stand at 24° overnight some crystallization occurred. The solution was stirred and the supernatant was taken (by centrifugation) for specific gravity measurement (sp. gr. 1.43) and for water determination (found, […] by Karl Fischer method). The solubility of the sodium salt in water was therefore determined to be about 70% w/v at 24°.

rats = details: Priewe et al., DAS 1,129,260/1962; cited from earlier work
dogs = details: Pfeiffer et al., DOS 2,118,219/1972; cited from earlier work
man = details: Pfeiffer et al., DOS 2,118,219/1972; cited from earlier work
[2] = test system: Swiss Albino mice (Charles River); assay: Acute Intravenous Toxicity Studies in Mice (LD50); format: in vivo; details: lateral tail vein, 1 ml/min, solutions containing 28.27% of iodine, seven day observation
Experimental: (§1) The techniques utilized are outlined below.
I. Acute Intravenous Toxicity Studies in Mice
Swiss Albino mice (Charles River) were dosed in the lateral tail vein with solutions of the iodinated compound containing 28.27% of iodine, injected at the rate of 1 ml/min. […] The LD50 values were calculated by the method of Litchfield and Wilcoxon (J. of Pharmac. and Exptl. Therap. 96:99-113, 1949).

in vivo [3] = details: mouse, intracerebral, fixed volumes of various concentrations, seven day observation, meglumine salt, read-out: LD50 of Meglumine Salt, Intracerebral (Mice)
From the text: as §1
II. Intracerebral Toxicity in Mice
Swiss Albino mice (Charles River) were used. […] The animals were observed immediately after injections and daily throughout a seven day observation period.

in vivo [4] = details: rat, intracisternal, two day observation, meglumine salt, read-out: LD50 of Meglumine Salt, Intracisternal (Rats)
From the text: as §1
III. Intracisternal Toxicity in Rats
Sprague Dawley (Carworth) rats were used. […] After dosing, the animals were housed individually, and observed for immediate reactions and periodically for a two day observation period.

CNC(=O)c1c(I)c(NC(=O)COC)c(I)c(C(=O)[O-])c1I.[Na+]
solubility thermodynamic ([1]; 24°, sodium salt, from specific gravity and Karl Fischer water of supernatant): ~700 mg/mL | temperature dependence of solubility ([1]; sodium salt in water): highly temperature dependent

COCC(=O)Nc1c(I)c(NC(C)=O)c(I)c(C(=O)O)c1I [3-acetamido-5-methoxyacetamido-2,4,6-triiodobenzoic acid]
LD50 (i.v. in rats) (rats): 16000 mg/kg | circulatory disturbances in dogs (dogs): strong circulatory disturbances | circulatory disturbances in man (man): strong circulatory disturbances

CNC(=O)c1c(I)c(NC(C)=O)c(I)c(C(=O)O)c1I [Iothalamic Acid, 5-acetamido-2,4,6-triiodo-N-methylisophthalamic acid, reference compound]
LD50 of Meglumine Salt, I.V. (Mice) [2]: 5742 mg. contained iodine/kg. anima

CNC(=O)c1c(I)c(NC(=O)COC)c(I)c(C(=O)O)c1I [meglumine 2,4,6-triiodo-5-methoxyacetamido-N-methylisophthalamate]
LD50 of Meglumine Salt, I.V. (Mice) [2]: 6700 mg. contained iodine/kg. anima | LD50 at 168 h (in vivo [3]): 700 mg/kg | LD50 at 48 h (in vivo [4]): 40 mg/kg

Reference: patent publication US3953497A, “2,4,6-Triiodo-5-methoxyacetamido-N-methylisophthalamic acid and salts, acyl halides and esters thereof” (Mallinckrodt, Inc., priority 1974, dated 1976)
